Values quoted from earlier work, collected in patent US20220409549A1, “ORAL PRODUCT TABLET AND METHOD OF MANUFACTURE” (NICOVENTURES TRADING LIMITED, priority 2021, published 2022).
Where two headings read alike, the source gives them in different places.

What was measured:
[1] = for logP: organic acids of Table 1, octanol and water
[2] = converts via isomerization into trans-bixin
[3] = for solubility: fats, alcohols, water

In the case of isopropyl benzoic acid, the logP [1] is given as 3.5.

For `CC(C)[C@@H]1CC[C@@H](C)C[C@H]1OC(=O)CCC(=O)O` [monomenthyl succinate], the logP [1] is listed as 3.

For ethyl benzoic acid, the logP [1] is listed as 2.9.

For `COC(=O)/C=C/C(C)=C\C=C\C(C)=C\C=C\C=C(C)\C=C\C=C(C)\C=C\C(=O)O` [bixin], the “chemical stability when isolated” value [2] is listed as “chemically unstable” and the solubility [3] is listed as “soluble in fats and alcohols but insoluble in water”.

For tocopherol succinate, the logP [1] is given as 10.2.

In the case of `CC(/C=C/C=C(C)/C=C/C(=O)O)=C\C=C\C=C(C)\C=C\C=C(C)\C=C\C(=O)O` (stereo in doubt) [norbixin, (2E,4E,6E,8E,10E,12E,14E,16E,18E)-4,8,13,17-tetramethylicosa-2,4,6,8,10,12,14,16,18-nonaenedioic acid], the solubility [3] is listed as “water soluble”.

In the case of `CN1CCCC1c1cccnc1` (centres unmarked) [nicotine, reference compound], the partitioning into octanol ([1]; acidic pH values, about 6.5 to about 4, protonated form) is given as “lower partitioning into octanol” and the partitioning into octanol ([1]; alkaline pH values, about 7.5 to about 9, free base form) is given as “high partitioning into octanol”.

For `C=C(C)[C@@H]1CCC(C)=C[C@H]1c1c(O)cc(CCCCC)cc1O` [CBD, cannabidiol, reference compound], the logP value ([1]; CBD) is listed as “about 6.5” and the “solubility in an aqueous environment (e.g., saliva)” value [3] is listed as “insoluble”.
